{"source": "patent US9420817B2", "about": "“Agent for amelioration of dysphagia, and pharmaceutical or food composition comprising the same” (AJINOMOTO CO., INC., priority 2006, dated 2016)", "system": "cough receptor", "experiment": "Cough receptor sensitivity test (nebulizer inhalation, C5)", "type": "in vivo, human", "conditions": "seventeen healthy adults, inhaled by nebulizer for 15 seconds at intervals of one minute, 0.49 to 1,000 μM", "experimental": "In the following Examples, 1 mL of an emulsifier (Tween 80) and 1 mL of 99.7% ethanol were added to 70 μL of the resultant extracted oil immediately before use, and the mixture was diluted with physiological saline (Otsuka) in Example 1 or with distilled water in Example 2, to thereby prepare solutions containing different concentrations of capsinoid. In the same way as above, 1 mL of an emulsifier (Tween 80) and 1 mL of 99.7% ethanol were added to 30.5 mg of capsaicin (manufactured by Sigma-Aldrich) immediately before use, and the mixture was diluted with physiological saline (Otsuka) in Example 1 or with distilled water in Example 2, to thereby prepare solutions containing different concentrations of capsaicin.\nSeventeen healthy adults (mean age 36±2.6) inhaled the capsaicin solution prepared in Production Example (0.49 to 1,000 μM) by a nebulizer for 15 seconds at intervals of one minute, and the concentrations for causing five or more coughs by one aspiration (C5) were determined.\nAt a later date, the same test was performed for the same test subjects using the capsinoid solutions (0.49 to 1,000 μM) to determine C5, followed by comparison between C5 of the capsaicin solution and C5 of the capsinoid solution."}
{"smiles": "COc1cc(CNC(=O)CCCC/C=C/C(C)C)ccc1O", "note": "[capsaicin solution, capsaicin]", "values": [{"measurement": "C5 (concentration for causing five or more coughs by one aspiration)", "value": 2.02, "unit": "µM"}]}
